Like-named read-outs stand apart in the source and are kept apart here.
Key:
[1] = system: Pfeiffer; assay: Methylated lysine of histone-H3 (H3K27Me3) detection by ELISA, Pfeiffer cells; assay type: cell-based, human; details: 7 days treatment, H3K27Me3 normalized to total histone-3, read-out: IC50 of cell methylation, Pfeiffer
Method: (§1) The operations for adherent cells and suspension cells cultured in 96-well plates were slightly different after they had been treated with compound (4-fold dilution 20 uM-0.009 nM, 3 duplicate wells) for 7 days, and the operations are summarized as follows: For adherent cells, after discarding the medium, 75 uL of 1-fold hypotonic lysis buffer (10 mM Tris-HCl, pH 7.5, containing halt protease inhibitor and PMSF with a final concentration of 1 mM) was added; the plate was frozen at −80° C. for at least 1 h or overnight; once the plate was taken away from the −80° C. environment, 120 uL (to a final volume of about 195 uL) of 1-fold hypotonic lysis buffer (containing protease inhibitor) was added, and the plate was thawed at room temperature and shaken for 2 min for mixing; and 8 uL (to a final volume of about 203 uL) of 2.5 M NaCl was added to each well to a final NaCl concentration of 100 mM and then the plate was shaken for an additional 2 min for mixing.
(§2) For suspension cells (final volume of medium was 100 uL/well), 25 uL of 5-fold hypotonic lysis buffer (50 mM Tris-HCl, pH 7.5, containing halt protease inhibitor and PMSF with a final concentration of 1 mM) was added, and the plate was frozen at −80° C. for at least 1 h or overnight. Once the plate was taken away from the −80° C. environment, 20 uL of 0.625 M NaCl was added to each well to a final NaCl concentration of about 100 mM, and the mixture was mixed well.
(§3) 75 uL or 100 uL of sample (with duplicate wells provided) was added to two 96-well ELISA plates (ThermoFisher Scientific; Immulon 4HBX 3885) and the plates were coated with total protein lysate and incubated overnight at 4° C. 50 uL of lysate was retained for protein quantitation if necessary. The sealing of the plates must be ensured. The plates were washed twice with 300 uL of 1×PBST (PBS containing 0.05% Tween 20) per well. Each well was blocked with 300 uL of dilution (PBS+2% BSA+0.05% Tween 20), incubated for 2 h at room temperature, and washed twice with 1×PBST. Primary antibodies were diluted with a dilution solution containing 1% BSA+0.05% Tween 20. 75-100 uL of anti-H3K27Me3 antibody (CST; 9733; 50% glycerol stock, 1:1,000) or anti-total histone-3 antibody (Abcam; ab1791; 50% glycerol stock, 1:10,000) was added to each well. The plates were incubated for 90 min at room temperature or incubated overnight at 4° C. The plates were washed three times with 1×PBST. 75-100 uL of anti-Rb-IgG-HRP secondary antibody (Cell Signaling Technology; 7074) was added per well, 1:2000 diluted secondary antibody for anti-H3K 27Me3 plate and 1:6000 diluted secondary antibody for anti-histone total histone-3 plate. The plates were incubated at room temperature for 90 min. The plate assayed with anti-histone-3 antibody was used to normalize the data for the corresponding plate assayed with anti-H3K 27me3. The plates must be washed at least three times with 1×PBST after primary or secondary antibody incubation. The plates were assayed by adding 75-100 uL of 3,3′,5,5′-tetramethylbenzidine substrate (CST or ThermoFisher Scientific; TMBS) per well and incubated away from light for 30 min at 37° C. The reaction was terminated by adding 100 uL of 0.5 M H2SO4 per well. The absorbance was read at 450 nm. Curve fitting was performed using Graph Pad program.

[2] = target: EZH2 enzyme complex (Homo sapiens (Human), UniProt Q15910); assay: Test on EZH2 inhibitory activity (TR-FRET); assay type: biochemical; details: EZH2 enzyme complex 25 ng/uL, histone H3 peptide 4 uM, SAM 2 uM, 300 min; read-out: IC50 of EZH2 inhibition
Sequence of EZH2 enzyme complex (Q15910 whole entry): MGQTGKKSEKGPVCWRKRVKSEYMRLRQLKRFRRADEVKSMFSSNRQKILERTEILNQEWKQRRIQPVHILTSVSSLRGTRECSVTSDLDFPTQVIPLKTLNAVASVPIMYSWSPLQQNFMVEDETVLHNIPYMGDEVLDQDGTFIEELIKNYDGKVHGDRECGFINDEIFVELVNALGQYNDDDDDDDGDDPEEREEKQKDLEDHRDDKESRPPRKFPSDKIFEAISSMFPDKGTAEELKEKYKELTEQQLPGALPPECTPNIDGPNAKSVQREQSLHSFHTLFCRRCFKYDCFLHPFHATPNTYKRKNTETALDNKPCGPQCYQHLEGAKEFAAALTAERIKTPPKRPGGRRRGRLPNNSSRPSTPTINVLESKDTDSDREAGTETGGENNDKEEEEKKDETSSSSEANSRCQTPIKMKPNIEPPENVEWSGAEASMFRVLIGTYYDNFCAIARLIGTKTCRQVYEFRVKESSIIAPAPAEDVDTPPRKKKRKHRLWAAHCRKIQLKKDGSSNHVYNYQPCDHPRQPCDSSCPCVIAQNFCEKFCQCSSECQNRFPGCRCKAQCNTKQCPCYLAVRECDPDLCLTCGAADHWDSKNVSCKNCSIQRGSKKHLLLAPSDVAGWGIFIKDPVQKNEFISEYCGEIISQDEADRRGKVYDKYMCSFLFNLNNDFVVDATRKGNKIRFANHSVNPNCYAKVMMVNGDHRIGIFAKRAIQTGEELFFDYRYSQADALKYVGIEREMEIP
Sequence of EZH2 enzyme complex (O75530 whole entry partner): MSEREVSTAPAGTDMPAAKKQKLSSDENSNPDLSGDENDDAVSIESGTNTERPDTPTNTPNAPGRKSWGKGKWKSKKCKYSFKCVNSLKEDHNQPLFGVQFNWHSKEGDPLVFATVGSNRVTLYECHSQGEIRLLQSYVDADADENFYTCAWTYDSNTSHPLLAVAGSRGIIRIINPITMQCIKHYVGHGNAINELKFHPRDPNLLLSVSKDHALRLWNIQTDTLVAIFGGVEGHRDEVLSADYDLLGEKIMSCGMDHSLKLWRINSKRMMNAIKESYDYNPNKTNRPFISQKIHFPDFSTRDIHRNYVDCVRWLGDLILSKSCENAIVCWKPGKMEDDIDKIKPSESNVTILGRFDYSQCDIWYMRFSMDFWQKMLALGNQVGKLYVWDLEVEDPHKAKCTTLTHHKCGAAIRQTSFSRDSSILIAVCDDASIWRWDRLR
Sequence of EZH2 enzyme complex (Q15022 whole entry partner): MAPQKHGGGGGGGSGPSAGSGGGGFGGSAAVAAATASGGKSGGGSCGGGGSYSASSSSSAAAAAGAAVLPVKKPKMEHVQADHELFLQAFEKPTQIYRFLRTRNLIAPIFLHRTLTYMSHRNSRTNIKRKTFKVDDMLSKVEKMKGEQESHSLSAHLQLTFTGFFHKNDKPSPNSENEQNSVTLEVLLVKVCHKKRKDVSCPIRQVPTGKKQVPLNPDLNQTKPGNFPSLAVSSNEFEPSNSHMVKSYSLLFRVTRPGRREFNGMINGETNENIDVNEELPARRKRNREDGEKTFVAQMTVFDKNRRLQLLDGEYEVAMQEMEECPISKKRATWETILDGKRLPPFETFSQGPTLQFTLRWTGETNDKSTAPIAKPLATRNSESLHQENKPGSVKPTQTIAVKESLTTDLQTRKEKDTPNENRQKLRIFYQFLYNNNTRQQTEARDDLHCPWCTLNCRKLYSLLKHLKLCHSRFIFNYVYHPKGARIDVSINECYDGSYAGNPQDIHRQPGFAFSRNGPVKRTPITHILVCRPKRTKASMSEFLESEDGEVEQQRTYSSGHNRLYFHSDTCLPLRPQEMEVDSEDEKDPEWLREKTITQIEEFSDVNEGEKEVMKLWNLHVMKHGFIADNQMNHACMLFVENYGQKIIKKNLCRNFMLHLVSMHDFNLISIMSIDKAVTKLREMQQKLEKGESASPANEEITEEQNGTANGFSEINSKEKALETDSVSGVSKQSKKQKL

[3] = system: WSU-DLCL2; assay: Methylated lysine of histone-H3 (H3K27Me3) detection by ELISA, WSU-DLCL2 cells; assay type: cell-based; details: Homo sapiens, WSUDLCL2, 168 h; WSU-DLCL2, 7 days treatment, H3K27Me3 normalized to total histone-3; read-out: IC50 of cell methylation, WSU-DLCL2
Method: as §1, §2, §3

Structure (SMILES) | IC50 ([1]; Homo sapiens, 168 h) | IC50 [2] | IC50 [3] | IC50 [1]
CCN(c1cc(C2CCC2)cc(C(=O)NCc2c(C)cc(C)[nH]c2=O)c1C)C1CCOCC1 [Example 15, 5-cyclobutyl-N-((4,6-dimethyl-2-oxo-1,2-dihydropyridin-3-yl)methyl)-3-(ethyl(tetrahydro-2H-pyran-4-yl)amino)-2-methylbenzamide] | < 0.05 µM | 0.01 to 0.1 µM | 0.05 to 0.5 µM | –
CCN(c1cc(OC2CC(CN3CCOCC3)C2)cc(C(=O)NCc2c(C)cc(C)[nH]c2=O)c1C)C1CCOCC1 (stereo not drawn) [Example 16, N-((4,6-dimethyl-2-oxo-1,2-dihydropyridin-3-yl)methyl)-3-(ethyl(tetrahydro-2H-pyran-4-yl)amino)-2-methyl-5-(3-(morpholinylmethyl)cyclobutoxy)benzamide] | < 0.05 µM | 0.01 to 0.1 µM | 0.05 to 0.5 µM | –
CCN(c1cc(O[C@H]2C[C@@H](N3CCNCC3)C2)cc(C(=O)NCc2c(C)cc(C)[nH]c2=O)c1C)C1CCOCC1 [Example 17, N-((4,6-dimethyl-2-oxo-1,2-dihydropyridin-3-yl)methyl)-3-(ethyl(tetrahydro-2H-pyran-4-yl)amino)-2-methyl-5-(cis-3-(piperazin-1-yl)cyclobutoxy)benzamide] | < 0.05 µM | < 0.01 µM | 0.05 to 0.5 µM | –
CCN(c1cc(O[C@H]2C[C@H](N3CCNCC3)C2)cc(C(=O)NCc2c(C)cc(C)[nH]c2=O)c1C)C1CCOCC1 [Example 18, N-((4,6-dimethyl-2-oxo-1,2-dihydropyridin-3-yl)methyl)-3-(ethyl(tetrahydro-2H-pyran-4-yl)amino)-2-methyl-5-(trans-3-(piperazin-1-yl)cyclobutoxy)benzamide] | < 0.05 µM | 0.01 to 0.1 µM | 0.05 to 0.5 µM | –
CCN(c1cc(O[C@H]2C[C@@H](N3CCN(C)CC3)C2)cc(C(=O)NCc2c(C)cc(C)[nH]c2=O)c1C)C1CCOCC1 [Example 19, N-((4,6-dimethyl-2-oxo-1,2-dihydropyridin-3-yl)methyl)-3-(ethyl(tetrahydro-2H-pyran-4-yl)amino)-2-methyl-5-(cis-3-(4-methylpiperazin-1-yl)cyclobutoxy)benzamide] | < 0.05 µM | 0.01 to 0.1 µM | 0.05 to 0.5 µM | –
CCN(c1cc(O[C@H]2C[C@H](N3CCN(C)CC3)C2)cc(C(=O)NCc2c(C)cc(C)[nH]c2=O)c1C)C1CCOCC1 [Example 20, N-((4,6-dimethyl-2-oxo-1,2-dihydropyridin-3-yl)methyl)-3-(ethyl(tetrahydro-2H-pyran-4-yl)amino)-2-methyl-5-(trans-3-(4-methylpiperazin-1-yl)cyclobutoxy)benzamide] | < 0.05 µM | 0.01 to 0.1 µM | 0.05 to 0.5 µM | –
CCN(c1cc(O[C@H]2C[C@@H](N3CCN(C(C)C)CC3)C2)cc(C(=O)NCc2c(C)cc(C)[nH]c2=O)c1C)C1CCOCC1 [Example 21, N-((4,6-dimethyl-2-oxo-1,2-dihydropyridin-3-yl)methyl)-3-(ethyl(tetrahydro-2H-pyran-4-yl)amino)-5-(cis-3-(4-isopropylpiperazin-1-yl)cyclobutoxy)-2-methylbenzamide] | < 0.05 µM | 0.01 to 0.1 µM | 0.05 to 0.5 µM | –
CCN(c1cc(O[C@H]2C[C@H](N3CCN(C(C)C)CC3)C2)cc(C(=O)NCc2c(C)cc(C)[nH]c2=O)c1C)C1CCOCC1 [Example 22, N-((4,6-dimethyl-2-oxo-1,2-dihydropyridin-3-yl)methyl)-3-(ethyl(tetrahydro-2H-pyran-4-yl)amino)-5-(trans-3-(4-isopropylpiperazin-1-yl)cyclobutoxy)-2-methylbenzamide] | < 0.05 µM | 0.01 to 0.1 µM | 0.05 to 0.5 µM | –
CCN1CCN([C@H]2C[C@@H](Oc3cc(C(=O)NCc4c(C)cc(C)[nH]c4=O)c(C)c(N(CC)C4CCOCC4)c3)C2)CC1 [Example 23, N-((4,6-dimethyl-2-oxo-1,2-dihydropyridin-3-yl)methyl)-3-(ethyl(tetrahydro-2H-pyran-4-yl)amino)-5-(cis-3-(4-ethylpiperazin-1-yl)cyclobutoxy)-2-methylbenzamide] | < 0.05 µM | 0.01 to 0.1 µM | > 1 µM | –
CCN1CCN([C@H]2C[C@H](Oc3cc(C(=O)NCc4c(C)cc(C)[nH]c4=O)c(C)c(N(CC)C4CCOCC4)c3)C2)CC1 [Example 24, N-((4,6-dimethyl-2-oxo-1,2-dihydropyridin-3-yl)methyl)-3-(ethyl(tetrahydro-2H-pyran-4-yl)amino)-5-(trans-3-(4-ethylpiperazin-1-yl)cyclobutoxy)-2-methylbenzamide] | < 0.05 µM | < 0.01 µM | 0.05 to 0.5 µM | –
CCN(c1cc(O[C@H]2C[C@@H](N3CCN(C(C)=O)CC3)C2)cc(C(=O)NCc2c(C)cc(C)[nH]c2=O)c1C)C1CCOCC1 [Example 25, cis-5-(3-(4-acetylpiperazin-1-yl)cyclobutoxy)-N-((4,6-dimethyl-2-oxo-1,2-dihydropyridin-3-yl)methyl)-3-(ethyl(tetrahydro-2H-pyran-4-yl)amino)-2-methylbenzamide] | < 0.05 µM | 0.01 to 0.1 µM | < 0.05 µM | –
CCN(c1cc(O[C@H]2C[C@H](N3CCN(C(C)=O)CC3)C2)cc(C(=O)NCc2c(C)cc(C)[nH]c2=O)c1C)C1CCOCC1 [Example 26, trans-5-(3-(4-acetylpiperazin-1-yl)cyclobutoxy)-N-((4,6-dimethyl-2-oxo-1,2-dihydropyridin-3-yl)methyl)-3-(ethyl(tetrahydro-2H-pyran-4-yl)amino)-2-methylbenzamide] | < 0.05 µM | 0.01 to 0.1 µM | 0.05 to 0.5 µM | –
CCN(c1cc(O[C@H]2C[C@@H](N3CCN(S(C)(=O)=O)CC3)C2)cc(C(=O)NCc2c(C)cc(C)[nH]c2=O)c1C)C1CCOCC1 [Example 27, N-((4,6-dimethyl-2-oxo-1,2-dihydropyridin-3-yl)methyl)-3-(ethyl(tetrahydro-2H-pyran-4-yl)amino)-2-methyl-5-(cis-3-(4-(methylsulfonyl)piperazin-1-yl)cyclobutoxy)benzamide] | < 0.05 µM | < 0.01 µM | < 0.05 µM | –
CCN(c1cc(O[C@H]2C[C@H](N3CCN(S(C)(=O)=O)CC3)C2)cc(C(=O)NCc2c(C)cc(C)[nH]c2=O)c1C)C1CCOCC1 [Example 28, N-((4,6-dimethyl-2-oxo-1,2-dihydropyridin-3-yl)methyl)-3-(ethyl(tetrahydro-2H-pyran-4-yl)amino)-2-methyl-5-(trans-3-(4-(methylsulfonyl)piperazin-1-yl)cyclobutoxy)benzamide] | < 0.05 µM | 0.01 to 0.1 µM | < 0.05 µM | –
CCN(c1cc(O[C@H]2C[C@H](CN3CCOCC3)C2)cc(C(=O)NCc2c(C)cc(C)[nH]c2=O)c1Cl)C1CCOCC1 [Example 29, 2-chloro-N-((4,6-dimethyl-2-oxo-1,2-dihydropyridin-3-yl)methyl)-3-(ethyl(tetrahydro-2H-pyran-4-yl)amino)-5-(trans-3-(morpholinylmethyl)cyclobutoxy)benzamide] | < 0.05 µM | 0.01 to 0.1 µM | 0.05 to 0.5 µM | –
CCN(c1cc(O[C@H]2C[C@H](CN3C[C@@H](C)O[C@@H](C)C3)C2)cc(C(=O)NCc2c(C)cc(C)[nH]c2=O)c1Cl)C1CCOCC1 [Example 30, 2-chloro-N-((4,6-dimethyl-2-oxo-1,2-dihydropyridin-3-yl)methyl)-5-(trans-3-((cis-2,6-dimethylmorpholinyl)methyl)cyclobutoxy)-3-(ethyl(tetrahydro-2H-pyran-4-yl)amino)benzamide] | – | 0.01 to 0.1 µM | 0.05 to 0.5 µM | < 0.05 µM
